Data reported in PubChem BioAssay (NCI).
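Test compounds were applied to cells in 96-well plates for 48 hours at 5 doses. GI50 is the concentration that inhibits growth by half. TGI: total growth inhibition.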

What was measured:
Assay in all cases: growth of human tumour cells (NCI), 48 h
[1] = test system: T-47D breast
[2] = test system: DU-145 prostate
[3] = test system: SK-MEL-5 melanoma
[4] = test system: HCT-116 colon
[5] = test system: ACHN renal
[6] = test system: CCRF-CEM leukemia
[7] = test system: SK-MEL-2 melanoma
[8] = test system: CAKI-1 renal
[9] = test system: SNB-75 CNS
[10] = test system: KM12 colon
[11] = test system: SK-MEL-28 melanoma
[12] = test system: UACC-62 melanoma
[13] = test system: RPMI-8226 leukemia
[14] = test system: K-562 leukemia
[15] = test system: SW-620 colon
[16] = test system: HOP-62 NSCLC
[17] = test system: SR leukemia
[18] = test system: COLO 205 colon
[19] = test system: HT29 colon
[20] = test system: OVCAR-8 ovarian
[21] = test system: MCF7 breast
[22] = test system: MALME-3M melanoma
[23] = test system: NCI-H23 lung
[24] = test system: OVCAR-5 ovarian
[25] = test system: HCC-2998 colon
[26] = test system: A498 renal
[27] = test system: TK-10 renal
[28] = test system: SF-268 CNS
[29] = test system: U251 CNS
[30] = test system: LOX IMVI melanoma
[31] = test system: NCI-H460 lung
[32] = test system: PC-3 prostate
[33] = test system: HS 578T breast
[34] = test system: NCI/ADR-RES ovarian
[35] = test system: OVCAR-3 ovarian
[36] = test system: UACC-257 melanoma
[37] = test system: HCT-15 colon
[38] = test system: EKVX NSCLC
[39] = test system: SN12C renal
[40] = test system: SF-539 CNS
[41] = test system: SNB-19 CNS
[42] = test system: NCI-H226 lung
[43] = test system: BT-549 breast
[44] = test system: UO-31 renal
[45] = test system: IGROV1 ovarian
[46] = test system: NCI-H522 lung
[47] = test system: MDA-MB-231 breast
[48] = test system: MOLT-4 leukemia
[49] = test system: A549 NSCLC
[50] = test system: MDA-MB-435
[51] = test system: OVCAR-4 ovarian
[52] = test system: SF-295 CNS
[53] = test system: 786-0 renal
[54] = test system: HL-60(TB) leukemia
[55] = test system: HOP-92 NSCLC
[56] = test system: SK-OV-3 ovarian
[57] = test system: M14 melanoma

Structure (SMILES): COc1ccc2sc(NC(=O)CCCCCCNC(=O)C(O)(O)C(F)(F)F)nc2c1
- GI50 [1]: 879 nM
- TGI [1]: 3020 nM
- GI50 [2]: 1010 nM
- TGI [2]: 14000 nM
- GI50 [3]: 1420 nM
- TGI [3]: 4870 nM
- GI50 [4]: 754 nM
- TGI [4]: > 30300 nM
- GI50 [5]: 1180 nM
- TGI [5]: 6580 nM
- GI50 [6]: 1340 nM
- TGI [6]: > 30300 nM
- GI50 [7]: 1060 nM
- TGI [7]: 5200 nM
- GI50 [8]: 1830 nM
- TGI [8]: 14700 nM
- GI50 [9]: 912 nM
- TGI [9]: > 30300 nM
- GI50 [10]: 1290 nM
- TGI [10]: 7400 nM
- GI50 [11]: 1160 nM
- TGI [11]: 7950 nM
- GI50 [12]: 828 nM
- TGI [12]: 3410 nM
- GI50 [13]: 988 nM
- TGI [13]: > 30300 nM
- GI50 [14]: 882 nM
- TGI [14]: > 30300 nM
- GI50 [15]: 531 nM
- TGI [15]: 1850 nM
- GI50 [16]: 1330 nM
- TGI [16]: > 30300 nM
- GI50 [17]: 738 nM
- TGI [17]: > 30300 nM
- GI50 [18]: 920 nM
- TGI [18]: 3650 nM
- GI50 [19]: 912 nM
- TGI [19]: > 30300 nM
- GI50 [20]: 989 nM
- TGI [20]: 6580 nM
- GI50 [21]: 1750 nM
- TGI [21]: > 30300 nM
- GI50 [22]: 1040 nM
- TGI [22]: 12000 nM
- GI50 [23]: 2830 nM
- TGI [23]: 21700 nM
- GI50 [24]: 912 nM
- TGI [24]: 6260 nM
- GI50 [25]: 2150 nM
- TGI [25]: 7560 nM
- GI50 [26]: 901 nM
- TGI [26]: 6470 nM
- GI50 [27]: 736 nM
- TGI [27]: > 30300 nM
- GI50 [28]: 1480 nM
- TGI [28]: 8210 nM
- GI50 [29]: 1040 nM
- TGI [29]: 5270 nM
- GI50 [30]: 1380 nM
- TGI [30]: 5420 nM
- GI50 [31]: 877 nM
- TGI [31]: 13500 nM
- GI50 [32]: 1720 nM
- TGI [32]: > 30300 nM
- GI50 [33]: 969 nM
- TGI [33]: 9910 nM
- GI50 [34]: 2070 nM
- TGI [34]: 18500 nM
- GI50 [35]: 696 nM
- TGI [35]: 2840 nM
- GI50 [36]: 1490 nM
- TGI [36]: 26800 nM
- GI50 [37]: 3570 nM
- TGI [37]: 10100 nM
- GI50 [38]: 2330 nM
- TGI [38]: > 30300 nM
- GI50 [39]: 2310 nM
- TGI [39]: 19000 nM
- GI50 [40]: 2050 nM
- TGI [40]: > 30300 nM
- GI50 [41]: 2470 nM
- TGI [41]: 14700 nM
- GI50 [42]: 4940 nM
- TGI [42]: 22600 nM
- GI50 [43]: 1500 nM
- TGI [43]: 18900 nM
- GI50 [44]: 1120 nM
- TGI [44]: 5700 nM
- GI50 [45]: 1830 nM
- TGI [45]: 7730 nM
- GI50 [46]: 919 nM
- TGI [46]: 4610 nM
- GI50 [47]: 680 nM
- TGI [47]: 2240 nM
- GI50 [48]: 1070 nM
- TGI [48]: > 30300 nM
- GI50 [49]: 1860 nM
- TGI [49]: 18400 nM
- GI50 [50]: 1030 nM
- TGI [50]: 6000 nM
- GI50 [51]: 2800 nM
- TGI [51]: > 30300 nM
- GI50 [52]: 1070 nM
- TGI [52]: 3410 nM
- GI50 [53]: 1080 nM
- TGI [53]: > 30300 nM
- GI50 [54]: 1060 nM
- TGI [54]: > 30300 nM
- GI50 [55]: 649 nM
- TGI [55]: 2470 nM
- GI50 [56]: 860 nM
- TGI [56]: 2310 nM
- GI50 [57]: 2070 nM
- TGI [57]: > 30300 nM
